Measurements: patent US10570149B2, “Tricyclic heterocylic derivatives” (MERCK PATENT GMBH, priority 2016, dated 2020)

test system: phosphorylation of H2AX (gH2AX) in U2OS-TopBP1-ER cells; assay: gH2AX-TopBP1ER cellular assay; format: cell-based; settings: Table 1, class symbols, 4-OHT
From the text: gH2AX-TopBP1ER Cellular Assay
ATR activity is restricted to replicating cells and many of its targets can also be phosphorylated by other PIKKs. These restrictions have limited the development of selective cellular assays in the past. In order to overcome these limitations, a previously developed genetically engineered cellular system in which ATR, and only ATR, can be activated at will in every cell (Toledo et al Genes Dev. 22, 297-302 2008) was used. In this system, the addition of 4-hydroxytamoxifen (4-OHT), promotes the nuclear translocation of a fragment of TopBP1 which then activates ATR. The phosphorylation of H2AX that follows 4-OHT addition in these cells is a direct and selective readout of ATR activity, which is not influenced by the rest of PIKKs. This property has been used in a screen for compounds with ATR inhibitory capacity. U2OS-TopBP1-ER cells stably express the TopBP1 activation domain (aa 978-1286) fused to a mutated estrogen receptor ligand binding domain. Nuclear accumulation of the TopBP1-ER-LBD fusion protein is induced by the synthetic ER antagonist 4-hydroxytamoxifen (4-OHT) (and not by natural ER agonists) mediating specific ATR activation that is independent of DNA damage or cell cycle. In the assay phosphorylation of the ATR substrate H2AX (“gH2AX”) at Serin 139 is detected using an immune-cytochemical procedure and high content imaging. For the assay U2OS-TopBP1-ER cells are plated in culture medium (DMEM high Glucose (no phenol red), 2 mM Glutamax, 1 mM Pyruvate, 10% FCS into Greiner 384 well plates, black, μclear #781090 (4000 cells/well/30 μl) and incubated for at least 20 hours at 37° C., 10% CO2 and 90% rH. Diluted test compounds (1 nM-30 μM final) and 4-OHT (1 μM final) are added simultaneously and cells are incubated for 2 h at 37° C. After fixation with 4% formaldehyde and permeabilisation with 0.2% Triton X-100 a complete immunocytochemical procedure is performed using a specific anti-gH2AX-antibody (Millipore 05-636, clone JBW301) and fluorescently labelled secondary antibody (Alexa Fluor® 488 goat anti-mouse F(ab′)2 fragment, Invitrogen A11017) and parallel nuclear staining for cell counting. The nuclear localised gH2AX signal is detected on an ImageXpress Ultra confocal high content reader and reported as % positive cells (nuclei).

| Compound | IC50 |
| --- | --- |
| CNc1cnc2[nH]ccc2c1-c1nc2c(c(C(C)(C)S(C)(=O)=O)n1)OC[C@@H]1COC[C@@H](C)N21 [A1, {4-[(S)-1-(1-Methanesulfonyl-1-methyl-ethyl)-5-(R)-methyl-5,6,8a,9-tetrahydro-8H-7,10-dioxa-2,4,4b-triaza-phenanthren-3-yl]-1H-pyrrolo[2,3-b]pyridin-5-yl}-methyl-amine] | 10 to 100 nM |
| C[C@@H]1COC[C@H]2COc3c(nc(-c4c(N)cnc5[nH]ccc45)nc3C(C)(C)S(C)(=O)=O)N21 [A20, 4-[(4bR,8S)-1-(1-Methanesulfonyl-1-methyl-ethyl)-5-methyl-5,6,8a,9-tetrahydro-8H-7,10-dioxa-2,4,4b-triaza-phenanthren-3-yl]-1H-pyrrolo[2,3-b]pyridin-5-ylamine] | 10 to 100 nM |
| C[C@@H]1COC[C@H]2COc3c(nc(-c4ccnc5[nH]ccc45)nc3C(C)(C)S(C)(=O)=O)N21 [A13, (6R,8aS)-1-(1-Methanesulfonyl-1-methyl-ethyl)-5-methyl-3-(1H-pyrrolo[2,3-b]pyridin-4-yl)-5,6,8a,9-tetrahydro-8H-7,10-dioxa-2,4,4b-triaza-phenanthrene] | 10 to 100 nM |
